Measured values: patent publication US10227350B2 (Gilead Sciences, Inc., priority 2016, dated 2019)

Target: PI3Kβ (Homo sapiens (Human), UniProt P42338)
Experiment: TR-FRET enzymatic activity assay, PI3Kβ
Type: biochemical
Conditions: 2× Km ATP, 2 μM PIP2, 30 minutes at 25° C., read-out: IC50-PIP-Beta
Protocol: The compounds of formula (I) were characterized for their enzymatic activity against the PI3K isoforms. The activities were measured using a time-resolved fluorescence resonance energy transfer (TR-FRET) assay. TR-FRET monitored the formation of 3,4,5-inositol triphosphate molecule that competed with fluorescently labeled PIPS for binding to the GRP-1 pleckstrin homology domain protein.
Class I PI3K isoforms were expressed and purified as heterodimeric recombinant proteins. All assay reagents and buffers for the TR-FRET assay were purchased from Millipore. […] The compounds were added to the assay solution and incubated for 30 minutes at 25° C.

Sequence of PI3Kβ (P42338 whole entry): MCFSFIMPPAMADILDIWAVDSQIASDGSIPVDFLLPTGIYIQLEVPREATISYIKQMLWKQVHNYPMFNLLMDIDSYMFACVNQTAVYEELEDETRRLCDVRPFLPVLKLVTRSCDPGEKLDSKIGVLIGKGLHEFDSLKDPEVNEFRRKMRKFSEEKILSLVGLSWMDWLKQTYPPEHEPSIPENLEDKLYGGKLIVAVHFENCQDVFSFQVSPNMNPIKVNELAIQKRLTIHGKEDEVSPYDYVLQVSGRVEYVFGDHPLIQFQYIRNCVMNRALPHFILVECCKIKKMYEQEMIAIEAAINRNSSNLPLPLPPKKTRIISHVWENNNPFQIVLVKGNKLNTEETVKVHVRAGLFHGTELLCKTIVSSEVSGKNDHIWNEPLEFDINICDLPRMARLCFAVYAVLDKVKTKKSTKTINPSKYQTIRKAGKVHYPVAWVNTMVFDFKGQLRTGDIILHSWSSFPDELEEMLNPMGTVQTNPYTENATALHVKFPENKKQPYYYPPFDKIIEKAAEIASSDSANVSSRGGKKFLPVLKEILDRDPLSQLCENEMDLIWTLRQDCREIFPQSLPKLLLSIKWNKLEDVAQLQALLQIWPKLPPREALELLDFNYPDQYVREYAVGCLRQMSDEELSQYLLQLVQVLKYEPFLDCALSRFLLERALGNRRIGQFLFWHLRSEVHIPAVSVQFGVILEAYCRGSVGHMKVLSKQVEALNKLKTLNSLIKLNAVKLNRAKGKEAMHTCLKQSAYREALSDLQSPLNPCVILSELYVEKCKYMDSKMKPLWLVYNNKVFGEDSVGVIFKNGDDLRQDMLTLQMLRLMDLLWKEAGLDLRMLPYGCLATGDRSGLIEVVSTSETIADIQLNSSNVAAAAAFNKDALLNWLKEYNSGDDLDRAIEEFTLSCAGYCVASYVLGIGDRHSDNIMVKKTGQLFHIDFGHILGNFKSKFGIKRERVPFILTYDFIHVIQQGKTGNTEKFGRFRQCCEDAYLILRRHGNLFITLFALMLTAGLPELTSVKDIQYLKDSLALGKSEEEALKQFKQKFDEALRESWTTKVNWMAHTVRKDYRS
Sequence of PI3Kβ (P27986 whole entry partner): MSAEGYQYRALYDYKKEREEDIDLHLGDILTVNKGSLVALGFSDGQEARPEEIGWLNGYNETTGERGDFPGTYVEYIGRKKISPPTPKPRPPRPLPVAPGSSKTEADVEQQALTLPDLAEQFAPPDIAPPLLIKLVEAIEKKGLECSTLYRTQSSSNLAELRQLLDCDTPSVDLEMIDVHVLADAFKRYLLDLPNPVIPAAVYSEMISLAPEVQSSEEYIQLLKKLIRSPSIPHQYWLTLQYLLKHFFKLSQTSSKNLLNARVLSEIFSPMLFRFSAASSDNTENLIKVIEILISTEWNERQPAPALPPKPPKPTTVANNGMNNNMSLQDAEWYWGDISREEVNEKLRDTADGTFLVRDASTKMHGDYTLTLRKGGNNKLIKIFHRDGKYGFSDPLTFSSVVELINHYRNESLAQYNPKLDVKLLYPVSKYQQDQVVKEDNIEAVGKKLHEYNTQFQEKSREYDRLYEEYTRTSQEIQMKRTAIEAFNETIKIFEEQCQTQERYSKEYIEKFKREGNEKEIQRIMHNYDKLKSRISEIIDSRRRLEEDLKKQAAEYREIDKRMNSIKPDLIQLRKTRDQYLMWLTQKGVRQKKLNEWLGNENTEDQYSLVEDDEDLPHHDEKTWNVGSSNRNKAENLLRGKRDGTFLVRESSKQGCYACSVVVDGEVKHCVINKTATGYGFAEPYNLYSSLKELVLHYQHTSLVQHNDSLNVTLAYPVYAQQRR

IC50 | SMILES
6 nM | Cc1nc2c(-c3nnc[nH]3)cc(-c3ccncc3)cc2n1-c1ccnc2c(F)ccc(F)c12 [Example 28, 5,8-difluoro-4-[2-methyl-6-pyridin-4-yl-4-(4H-1,2,4-triazol-3-yl)benzimidazol-1-yl]quinoline]
6 nM | Cc1nc2c(-c3nnc[nH]3)cc(-c3ccncc3)cc2n1-c1ccnc2c(Cl)ccc(Cl)c12 [Example 29, 5,8-dichloro-4-[2-methyl-6-pyridin-4-yl-4-(4H-1,2,4-triazol-3-yl)benzimidazol-1-yl]quinoline]
8 nM | Cc1nc2c(-c3nnc[nH]3)cc(-c3ccncc3)cc2n1-c1ccnc2cccc(F)c12 [Example 30, 5-fluoro-4-[2-methyl-6-pyridin-4-yl-4-(4H-1,2,4-triazol-3-yl)benzimidazol-1-yl]quinoline]
89 nM | Cc1cccc2nccc(-n3c(C)nc4c(-c5nnc[nH]5)cc(-c5ccncc5)cc43)c12 [Example 31, 5-methyl-4-[2-methyl-6-pyridin-4-yl-4-(4H-1,2,4-triazol-3-yl)benzimidazol-1-yl]quinoline]
6 nM | Cc1cc(-n2c(C)nc3c(-c4nnc[nH]4)cc(-c4ccncc4)cc32)c2cccc(Cl)c2n1 [Example 32, 8-chloro-2-methyl-4-[2-methyl-6-pyridin-4-yl-4-(4H-1,2,4-triazol-3-yl)benzimidazol-1-yl]quinoline]
110 nM | Cc1nnc(-c2cc(-c3ccncc3)cc3c2nc(C)n3-c2ccnc3c(F)ccc(F)c23)[nH]1 [Example 33, 5,8-difluoro-4-[2-methyl-4-(5-methyl-4H-1,2,4-triazol-3-yl)-6-pyridin-4-ylbenzimidazol-1-yl]quinoline]
26 nM | Cc1cc(-n2c(C)nc3c(-c4nnc[nH]4)cc(-c4ccncc4)cc32)c2ccccc2n1 [Example 34, 2-methyl-4-[2-methyl-6-pyridin-4-yl-4-(4H-1,2,4-triazol-3-yl)benzimidazol-1-yl]quinoline]
22 nM | Cc1nnc(-c2cc(-c3ccncc3)cc3c2nc(C)n3-c2ccnc3c(Cl)cccc23)[nH]1 [Example 35, 8-chloro-4-[2-methyl-4-(5-methyl-4H-1,2,4-triazol-3-yl)-6-pyridin-4-ylbenzimidazol-1-yl]quinoline]
250 nM | Clc1cccc2c(-n3c(C4COC4)nc4c(-c5nnc[nH]5)cc(-c5ccncc5)cc43)ccnc12 [Example 36, 8-chloro-4-[2-(oxetan-3-yl)-6-pyridin-4-yl-4-(4H-1,2,4-triazol-3-yl)benzimidazol-1-yl]quinoline]
4 nM | Cc1nc2c(-c3nnc[nH]3)cc(-c3ccncc3)cc2n1-c1ccnc2c(Cl)ccc(F)c12 [Example 37, 8-chloro-5-fluoro-4-[2-methyl-6-pyridin-4-yl-4-(4H-1,2,4-triazol-3-yl)benzimidazol-1-yl]quinoline]
7 nM | Cc1nc2c(-c3nnc[nH]3)cc(-c3ccncc3)cc2n1-c1ccnc2c(Cl)cccc12 [Example 38, 8-chloro-4-[2-methyl-6-pyridin-4-yl-4-(4H-1,2,4-triazol-3-yl)benzimidazol-1-yl]quinoline]
5 nM | Cc1nc2c(-c3nnc[nH]3)cc(-c3ccncc3F)cc2n1-c1ccnc2c(Cl)cccc12 [Example 39, 8-chloro-4-[6-(3-fluoropyridin-4-yl)-2-methyl-4-(4H-1,2,4-triazol-3-yl)benzimidazol-1-yl]quinoline]
27 nM | Cc1nc2c(-c3nnc[nH]3)cc(-c3cc(F)ncc3F)cc2n1-c1ccnc2c(F)ccc(F)c12 [Example 41, 4-[6-(2,5-difluoropyridin-4-yl)-2-methyl-4-(4H-1,2,4-triazol-3-yl)benzimidazol-1-yl]-5,8-difluoroquinoline]
10 nM | Cc1nc2c(-c3nnc[nH]3)cc(-c3ccnc(F)c3F)cc2n1-c1ccnc2c(F)ccc(F)c12 [Example 42, 4-[6-(2,3-difluoropyridin-4-yl)-2-methyl-4-(4H-1,2,4-triazol-3-yl)benzimidazol-1-yl]-5,8-difluoroquinoline]
